From the NIST ThermoML archive (doi:10.1016/j.jct.2013.01.005)
± gives the expanded uncertainty stated by the source.

Experiment: activity coefficient (dimensionless); of the first substance listed, at infinite dilution; xn = mol fraction of the nth substance listed
Details: 101 kPa, Liquid, Chromatography, x1 = 0

| Structure (SMILES) | activity coefficient (308.15 K) | activity coefficient (318.15 K) | activity coefficient (328.15 K) | activity coefficient (338.15 K) | activity coefficient (348.15 K) | activity coefficient (358.15 K) |
| --- | --- | --- | --- | --- | --- | --- |
| Cc1ccccc1C [1,2-dimethylbenzene] + CCCCCC[N+]1(C)CCCCC1.O=S(=O)([N-]S(=O)(=O)C(F)(F)F)C(F)(F)F | 1.04 ± 0.07 | 1.08 ± 0.07 | 1.1 ± 0.07 | 1.13 ± 0.07 | 1.16 ± 0.07 | 1.18 ± 0.08 |
| Cc1ccccc1C [1,2-dimethylbenzene] + CCCCC[N+]1(C)CCCCC1.O=S(=O)([N-]S(=O)(=O)C(F)(F)F)C(F)(F)F | 1.06 ± 0.07 | 1.14 ± 0.07 | 1.16 ± 0.07 | 1.19 ± 0.08 | 1.24 ± 0.08 | 1.27 ± 0.08 |
| Cc1cccc(C)c1 [1,3-dimethylbenzene] + CCCCCC[N+]1(C)CCCCC1.O=S(=O)([N-]S(=O)(=O)C(F)(F)F)C(F)(F)F | 1.14 ± 0.07 | 1.16 ± 0.07 | 1.19 ± 0.08 | 1.23 ± 0.08 | 1.27 ± 0.08 | 1.29 ± 0.08 |
| Cc1cccc(C)c1 [1,3-dimethylbenzene] + CCCCC[N+]1(C)CCCCC1.O=S(=O)([N-]S(=O)(=O)C(F)(F)F)C(F)(F)F | 1.15 ± 0.07 | 1.24 ± 0.08 | 1.28 ± 0.08 | 1.31 ± 0.09 | 1.36 ± 0.09 | 1.39 ± 0.09 |
| Cc1ccc(C)cc1 [1,4-dimethylbenzene] + CCCCCC[N+]1(C)CCCCC1.O=S(=O)([N-]S(=O)(=O)C(F)(F)F)C(F)(F)F | 1.14 ± 0.07 | 1.17 ± 0.07 | 1.2 ± 0.08 | 1.24 ± 0.08 | 1.28 ± 0.08 | 1.3 ± 0.08 |
| Cc1ccc(C)cc1 [1,4-dimethylbenzene] + CCCCC[N+]1(C)CCCCC1.O=S(=O)([N-]S(=O)(=O)C(F)(F)F)C(F)(F)F | 1.16 ± 0.07 | 1.24 ± 0.08 | 1.28 ± 0.08 | 1.32 ± 0.09 | 1.37 ± 0.09 | 1.4 ± 0.09 |
| C=CCCCCCCCC [1-decene] + CCCCCC[N+]1(C)CCCCC1.O=S(=O)([N-]S(=O)(=O)C(F)(F)F)C(F)(F)F | 12.3 ± 0.8 | 12.1 ± 0.8 | 12 ± 0.8 | 11.8 ± 0.8 | 11.7 ± 0.8 | 11.5 ± 0.8 |
| C=CCCCCCCCC [1-decene] + CCCCC[N+]1(C)CCCCC1.O=S(=O)([N-]S(=O)(=O)C(F)(F)F)C(F)(F)F | 17.1 ± 1.2 | 16.5 ± 1.1 | 15.9 ± 1.1 | 15.5 ± 1.1 | 15.3 ± 1 | 14.6 ± 1 |
| C=CCCCCC [1-heptene] + CCCCCC[N+]1(C)CCCCC1.O=S(=O)([N-]S(=O)(=O)C(F)(F)F)C(F)(F)F | 5.89 ± 0.4 | 5.81 ± 0.4 | 5.69 ± 0.39 | 5.59 ± 0.38 | 5.45 ± 0.37 | 5.35 ± 0.36 |
| C=CCCCCC [1-heptene] + CCCCC[N+]1(C)CCCCC1.O=S(=O)([N-]S(=O)(=O)C(F)(F)F)C(F)(F)F | 7.42 ± 0.51 | 7.12 ± 0.49 | 6.88 ± 0.47 | 6.67 ± 0.45 | 6.48 ± 0.44 | 6.31 ± 0.43 |
| C#CCCCCC [1-heptyne] + CCCCCC[N+]1(C)CCCCC1.O=S(=O)([N-]S(=O)(=O)C(F)(F)F)C(F)(F)F | 2.39 ± 0.16 | 2.43 ± 0.17 | 2.46 ± 0.17 | 2.49 ± 0.17 | 2.52 ± 0.17 | 2.55 ± 0.17 |
| C#CCCCCC [1-heptyne] + CCCCC[N+]1(C)CCCCC1.O=S(=O)([N-]S(=O)(=O)C(F)(F)F)C(F)(F)F | 2.78 ± 0.19 | 2.81 ± 0.19 | 2.84 ± 0.19 | 2.87 ± 0.2 | 2.91 ± 0.2 | 2.94 ± 0.2 |
| C#CCCCC [1-hexyne] + CCCCCC[N+]1(C)CCCCC1.O=S(=O)([N-]S(=O)(=O)C(F)(F)F)C(F)(F)F | 1.85 ± 0.12 | 1.88 ± 0.13 | 1.92 ± 0.13 | 1.93 ± 0.13 | 1.96 ± 0.13 | 1.98 ± 0.13 |
| C#CCCCC [1-hexyne] + CCCCC[N+]1(C)CCCCC1.O=S(=O)([N-]S(=O)(=O)C(F)(F)F)C(F)(F)F | 2.09 ± 0.14 | 2.12 ± 0.14 | 2.14 ± 0.15 | 2.18 ± 0.15 | 2.22 ± 0.15 | 2.25 ± 0.15 |
| C#CCCCCCC [1-octyne] + CCCCCC[N+]1(C)CCCCC1.O=S(=O)([N-]S(=O)(=O)C(F)(F)F)C(F)(F)F | 3.1 ± 0.21 | 3.14 ± 0.21 | 3.19 ± 0.22 | 3.21 ± 0.22 | 3.24 ± 0.22 | 3.26 ± 0.22 |
| C#CCCCCCC [1-octyne] + CCCCC[N+]1(C)CCCCC1.O=S(=O)([N-]S(=O)(=O)C(F)(F)F)C(F)(F)F | 3.71 ± 0.25 | 3.74 ± 0.25 | 3.76 ± 0.26 | 3.79 ± 0.26 | 3.81 ± 0.26 | 3.84 ± 0.26 |
| C#CCCC [1-pentyne] + CCCCCC[N+]1(C)CCCCC1.O=S(=O)([N-]S(=O)(=O)C(F)(F)F)C(F)(F)F | 1.42 ± 0.09 | 1.45 ± 0.1 | 1.48 ± 0.1 | 1.5 ± 0.1 | 1.53 ± 0.1 | 1.54 ± 0.1 |
| C#CCCC [1-pentyne] + CCCCC[N+]1(C)CCCCC1.O=S(=O)([N-]S(=O)(=O)C(F)(F)F)C(F)(F)F | 1.54 ± 0.1 | 1.59 ± 0.11 | 1.62 ± 0.11 | 1.64 ± 0.11 | 1.69 ± 0.11 | 1.73 ± 0.12 |
| CC(C)CC(C)(C)C [2,2,4-trimethylpentane] + CCCCCC[N+]1(C)CCCCC1.O=S(=O)([N-]S(=O)(=O)C(F)(F)F)C(F)(F)F | 9.75 ± 0.67 | 9.59 ± 0.65 | 9.2 ± 0.63 | 8.95 ± 0.61 | 8.59 ± 0.59 | 8.43 ± 0.58 |
| CC(C)CC(C)(C)C [2,2,4-trimethylpentane] + CCCCC[N+]1(C)CCCCC1.O=S(=O)([N-]S(=O)(=O)C(F)(F)F)C(F)(F)F | 13.4 ± 0.9 | 12.5 ± 0.9 | 11.8 ± 0.8 | 11.4 ± 0.8 | 10.9 ± 0.7 | 10.6 ± 0.7 |
| CCC(C)(C)C [2,2-dimethylbutane] + CCCCCC[N+]1(C)CCCCC1.O=S(=O)([N-]S(=O)(=O)C(F)(F)F)C(F)(F)F | 6.67 ± 0.45 | 6.44 ± 0.44 | 6.12 ± 0.42 | 6 ± 0.41 | 5.84 ± 0.4 | 5.65 ± 0.39 |
| CCC(C)(C)C [2,2-dimethylbutane] + CCCCC[N+]1(C)CCCCC1.O=S(=O)([N-]S(=O)(=O)C(F)(F)F)C(F)(F)F |  | 7.94 ± 0.54 | 7.7 ± 0.53 | 7.34 ± 0.5 | 7.04 ± 0.48 | 6.86 ± 0.47 |
| CCCCC(C)=O [2-hexanone] + CCCCCC[N+]1(C)CCCCC1.O=S(=O)([N-]S(=O)(=O)C(F)(F)F)C(F)(F)F | 0.694 ± 0.047 | 0.706 ± 0.047 | 0.722 ± 0.048 | 0.74 ± 0.049 | 0.764 ± 0.05 | 0.784 ± 0.051 |
